{
  "source": "patent US10774049B2",
  "about": "“PU.1 inhibitors” (Albert Einstein College of Medicine, priority 2016, dated 2020)",
  "key": {"[1]": {"system": "LSK cells", "assay": "Colony assay of Lin−Sca1+c-Kit+ (LSK) cells from wildtype mice", "format": "cell-based", "experimental": "FIG. 5A-5F. PU.1 inhibitors decrease the granulo-monocytic potential of hematopoietic stem and progenitor cells, which is rapidly reversible. (A-C) Lin-Sca1+c-Kit+(LSK) cells were plated in semi-solid media containing PU.1 inhibitors. (A) Number of colony-forming unit granulocyte (CFU-G), monocyte (CFU-M), granulo/monocyte (CFU-GM), granulo/erythrocyte/monocyte/megakaryocyte (CFU-GEMM), burst or colony forming unit erythroid (B/CFU-E) and immature colonies after treatment. Detailed histograms of CFU-GM, CFU-G and CFU-M numbers are shown. Data represent the means±SD of 3 independent experiments. (B) Cells coming from colony assays after vehicle or DB2313 treatment. Cells were cytospun and stained with May-Grünwald Giemsa. Scale bar is equal to 20 μm. (C) FACS analysis showing the percentage of CD11b+Gr1−, CD11b+Gr1+, CD11b−Gr1+, CD41+Ter119−, CD41+Ter119+, CD41−Ter119+ populations after colony assays. Data represent the means±SD of 4 independent experiments. (D,E) Cells coming from colony assays treated with DB2313 were replated in the presence (+DB2313) or in the absence of DB2313 (−DB2313) and the percentage of CD11b+Gr1−, CD11b+Gr1+ cells was assessed one week later after culture in semi-solid media. (D) Representative FACS plots (E) Percentage of CD11b+Gr1− and CD11b+Gr1+ populations. Data represent the means±SD of 3 independent experiments; fold change compared to replating with DB2313 is shown. (F) Serial replating assay with D2313 continuous treatment (n=3). Data represent the means±SD of technical triplicate from one representative experiment. *P<0.05, **P<0.01, ***P<0.001,\nIn order to determine the effect of our PU.1 inhibitors on normal hematopoietic differentiation, we sorted immature Lin^−Sca1^+c-Kit^+ (LSK) cells from wildtype mice and studied their clonogenic potential following treatment with either DB1976, DB2115, or DB2313. […] Overall, the numbers of viable cells per colony were reduced upon PU.1 inhibitor treatment, again consistent with an effect of PU.1 inhibition on more mature, differentiating cells. […]"}, "[2]": {"system": "PU.1 targets Csf1r, Junb, PU.1, E2f1", "assay": "Quantitative RT-PCR of PU.1 target transcripts in PU.1 URE−/− AML cells", "format": "cell-based, murine", "experimental": "FIG. 3A-3G. Novel inhibitors show on-target PU.1 inhibitory activity. (A) Quantitative RT-PCR analysis of Csf1r, Junb, Sfpi1, E2f1 expression after 72 h (n=6) and, for Csf1r, after 1 h (n=3), 4 h (n=7), 8 h (n=3) and 24 h (n=3) of treatment with the small molecules in URE−/− cells, expression is normalized to GAPDH expression. Data represent means±SD of technical triplicate from one representative experiment; fold change compared to Vehicle is shown. (B) Chromatin immunoprecipitation assay showing PU.1 occupancy on E2f1, Junb, Csf1r promoters after treatment in Umsh cell line (n=5). 10·10^6 cells were collected for each condition after 8 h treatment with a double dose of the small molecules (50 uM for DB1976, 1.4 uM for DB2115 and 660 nM for DB2313) or Vehicle; and processed for ChIP using PU.1 monoclonal antibody. Myogenin was used as a negative control, not regulated by PU.1. Data represent means±SD of technical triplicate from one representative experiment. (C) Cell viability after PU.1 rescue in MOLM13 cells. MOLM13 were transduced with a lentiviral construct expressing either PU.1-GFP (PU.1, black bar) or GFP as a control (empty, white bar), sorted on GFP and plated with DB1976 (n=7), DB2115 (n=8), DB2313 (n=6) or Vehicle. Cell count was performed after 4 days. Data represent means±SD of technical triplicate from one representative experiment; fold change compared to Vehicle is shown. (D-G) Transcriptome analysis of URE−/− cells after 24 h of treatment with DB2313 versus vehicle (n=3). Differentially expressed genes were determined with a fold change at 1.2 and a P value <0.1. (D) Enrichment in genes directly regulated by PU.1 or in genes regulated by the other ETS transcription factors Ets1, Gabpa, Spi-B, Fli-1, using Ingenuity Knowledge Base. The red dotted line represents the significance threshold (−log (P value)>1.3). (E,F) Comparison analysis of deregulated genes in URE−/− cells after DB2313 treatment and in PUER cells after PU.1 induction (GSE13125). Deregulated gens in PUER cells were analyzed with a FC at 1.5 and P-value <0.05. (E) Significant overlap between the 2 datasets, with 484 genes commonly deregulated. P-value was calculated using the hypergeometric test. (F) Comparative analysis of deregulated canonical pathways between the 2 datasets (z-score >2 for PUER dataset). Colored squares indicate activation z-score. (G) Enrichment of PU.1 binding at promoters of all, up- and down-deregulated genes after DB2313 treatment. […]\nTo assess on-target activity of our inhibitors in AML cells, we measured transcript levels of well-known PU.1 targets in PU.1 URE^−/− AML cells. […] As Csf1r is one of the most sensitive PU.1 targets in myeloid cells, we assessed its expression at different time points (1 h, 4 h, 8 h and 24 h) after drug treatment. […]"}, "[3]": {"settings": "second plating, vs replating with compound"}},
  "note": "Where a name gives a salt, the structure may show the parent alone.",
  "data": [
    {"smiles": "N=C(N)c1ccc2nc(-c3ccc(-c4nc5ccc(C(=N)N)cc5[nH]4)[se]3)[nH]c2c1", "note": "[DB1976]", "values": [
      {"measurement": "toxicity on LSK cells", "setting": "[1]; majority of colonies unidentifiable, majority of dead cells", "value": "appeared to show toxicity"}
    ]},
    {"smiles": "N=C(N)c1ccc2nc(-c3ccc(OCCCCOc4ccc(-c5nc6ccc(C(=N)N)cc6[nH]5)cc4)cc3)[nH]c2c1", "note": "[DB2115]", "values": [
      {"measurement": "Csf1r, Junb, and PU.1 transcript expression", "setting": "[2]", "value": "decrease"},
      {"measurement": "E2f1 expression", "setting": "[2]", "value": "increase"}
    ]},
    {"smiles": "CC(C)NC(=N)c1ccc2nc(-c3ccc(OCc4cccc(COc5ccc(-c6nc7ccc(C(=N)NC(C)C)cc7[nH]6)cc5)c4F)cc3)[nH]c2c1", "note": "[DB2313, 3-Bis{4[4(5)-N-isopropylamidinobenzimidazolyl]phenoxymethyl]}-2-fluorobenzene tetrahydrochloride]", "values": [
      {"measurement": "Csf1r, Junb, and PU.1 transcript expression", "setting": "[2]", "value": "decrease"},
      {"measurement": "E2f1 expression", "setting": "[2]", "value": "increase"},
      {"measurement": "increase of production of mature granulocytes after removing the treatment", "setting": "[1]; [3]", "value": 4, "unit": "fold"},
      {"measurement": "increase of production of mature monocytes after removing the treatment", "setting": "[1]; [3]", "value": 22, "unit": "fold"}
    ]}
  ]
}
